In patent publication US9011817B2, “Compounds and methods of making compounds” (The Board of Trustees of the Leland Stanford Junior …, priority 2009, dated 2015):

Columns and labels:
[1] = cited from earlier work
[2] = system: primary T cells; assay: [18F]F-AraG uptake in purified primary T cells, stimulated or un-stimulated; format: cell-based, mouse; conditions: for fold more uptake than un-stimulated primary T cells: 1 μCi, 60 minutes
Procedure: Error bars represent mean of triplicate determinations+/−SEM., n=4 p=0.14 and 0.003 by two tailed, paired Student T test respectively.
(§1) CCRF-CEM (acute lymphoblastic T leukemia cell line procured form ATCC) cells were maintained in RPMI 1640 (Cellgro) supplemented with 100 U penicillin/100 ug streptomycin/ml (Cellgro) and 10% fetal bovine serum (Gibco). 5×10^5 CCRF-CEM cells were plated in 12 well dishes. Cells were allowed to settle for one hour then [^18F]F-AraG was added to each well and incubated at 37° C. for indicated times. Primary T cells were isolated from spleens and thymus of out-bred mice. Briefly, tissues were minced and single cell suspensions made in RPMI supplemented as above. Cells were centrifuged at 300×g for 8 minutes at 4° C. and cell pellets were resuspended in phosphate buffered saline (PBS) supplemented with 0.5% bovine serum albumin (BSA). T cells were purified from the suspensions using Miltenyi Pan T antibodies and columns (Miltenyi Biotec) per manufacturer's directions. Purified T cells were either stimulated with 100 U/ml IL-2 (eBiosciences) for 24 or 48 hours, or 50 nM phorbol myristate acetate (PMA) (Fluka) with 1 μg/mL ionomycin (Sigma) for 48 hours or left unstimulated then exposed to 1 μCi of [^18F]F-AraG/10^6 cells for 60 minutes. All cells were then washed in 1×PBS, lysed and radioactivity of each well was determined by gamma counter for [^18F] samples. All results were done in triplicate and are expressed in counts per minute (CPM), standard errors were determined and student T tests performed.

[3] = micro PET scans in normal nude mice; format: in vivo; conditions: initial scans
[4] = system: CCRF-CEM cells; assay: [18F]F-AraG cell uptake in CCRF-CEM cells (gamma counter); format: cell-based; conditions: for fold more [18F]F-AraG uptake at 10 μCi as compared to 3 μCi: 5×10^5 CCRF-CEM cells
Procedure: FIG. 2.2 illustrates a graph of 5×10^5 CCRF-CEM cells were labeled with ^18F-AraG (0.6 mCi/ml) for indicated times and doses. Uptake was measured on gamma counter. Bars represent mean of triplicate determinations+/−SEM.
Cells took up ˜2-fold more [^18F]F-AraG when exposed to 10 μCi, at 60 minutes (p=0.008) and at 120 minutes (p=0.001) as compared to 3 μCi. Error bars represent S.E.M.
as §1

[5] = system: CCRF-CEM cells; assay: Competition of cold 2F-AraG with 8-[3H]-AraG uptake in CCRF-CEM cells; format: cell-based; conditions: increasing amount of 2F-AraG 1-100 μM, 60 or 120 minutes
Procedure: FIG. 2.3a illustrates a graph of 5×10^5 CCRF-CEM cells were incubated, in triplicate, with 1 uCi 8H^3-AraG (1 mCi/ml) and increasing amounts of cold 2F-AraG or DMSO for either 60 or 120 minutes. Percent of control uptake was calculated as: measured cpm of sample/cpm accumulated 1 uCi 8[H^3]-AraG control×100.
We have successfully synthesized a novel ^18F derivative of 2-deoxyguanosine analog, 9-β-D-arabinofuranosylguanine (18F-AraG), to use as a molecular probe (FIG. 2.1). [^18F]AraG cell uptake was evaluated in leukemia cell line, CCRF-CEM, and was compared with [^3H]Arag cell uptake. […] To determine whether cold derivative 2F-AraG competes with the uptake of 8-[^3H]-AraG, we studied the [^3H]-Arag uptakes by CCRF-CEM, MOLT-4 (Leukemia cell line) and Raji (human Burkitt's lymphoma cell line) and competition with cold 2F-AraG (FIGS. 2.3a and 2.3b). […] Competition assays indicate that cold derivative 2F-Arag competes with the uptake of the 8-[^3H]-AraG, indicating similar uptake pathways.

Nc1nc2c(ncn2[C@@H]2O[C@H](CO)[C@@H](O)[C@@H]2O)c(=O)[nH]1 [AraG, 9-β-D-arabinofuranosylguanine]
therapeutic serum levels at which neurotoxic side effects are induced in some patients [1]: ~150 µM

Nc1nc2c(ncn2[C@@H]2O[C@H](CO)[C@@H](O)[C@@H]2[18F])c(=O)[nH]1 [[^18F]F-AraG, 2′-Deoxy-2′-[^18F]fluoro-9-β-D-arabinofuranosylguanine]
cell uptake (qualitative) ([2]; activated primary thymocytes / primary T cells): take up [^18F]F-AraG to an appreciable level
fold more uptake than un-stimulated primary T cells ([2]; stimulated with 50 nM PMA and 1 μg/mL ionomycin, p=0.003): 4.7 fold
fold more uptake than un-stimulated primary T cells ([2]; stimulated with 100 U/mL interleukin 2, p=0.14): 1.4 fold
tissue uptake in micro PET [3]: taken up within the thymus and lymph nodes
fold more [18F]F-AraG uptake at 10 μCi as compared to 3 μCi ([4]; 60 minutes, p=0.008): ~2 fold
fold more [18F]F-AraG uptake at 10 μCi as compared to 3 μCi ([4]; 120 minutes, p=0.001): ~2 fold
dose dependence of uptake ([4]; CCRF-CEM cells): dose dependent
time course of uptake ([4]; CCRF-CEM cells, 60 or 120 minutes): majority of the [^18F]F-AraG is taken up by cells within the first hour
cell uptake (qualitative) ([4]; CCRF-CEM leukemia cell line, unactivated): take up
fold increase in [18F]F-AraG uptake, cells exposed to 10 μCi compared to 3 μCi ([4]; unactivated CCRF-CEM cells, time not stated): 2 fold

Nc1nc2c(ncn2[C@@H]2O[C@H](CO)[C@@H](O)[C@@H]2F)c(=O)[nH]1 [2F-AraG, 2′-Deoxy-2′-fluoro-9-β-D-arabinofuranosylguanine]
effect on [3H]-AraG uptake [5]: decrease of the [^3H]-AraG uptake
